Series [1] deals with T1, Human recombinant BAD protein (Homo sapiens, UniProt Q92934).
T1 construct: purchased MyBiosource, USA MBS143012
T1 sequence (Q92934 1-168): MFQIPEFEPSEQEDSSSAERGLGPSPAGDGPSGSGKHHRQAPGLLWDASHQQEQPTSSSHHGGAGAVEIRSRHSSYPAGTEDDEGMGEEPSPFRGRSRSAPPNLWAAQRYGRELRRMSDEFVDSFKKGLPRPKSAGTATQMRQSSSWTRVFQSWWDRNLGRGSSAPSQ
Briefly: Surface plasmon resonance analysis (BIAcore). It counts as binding. The conditions noted are these: SPR. The procedure:
To provide molecular interaction of the most promising candidate, NPB binding affinity to BAD, we performed surface plasmon resonance (SPR) measurements with immobilized BAD subunit using NPB as the analyte. We know that BAD could bind to BAD subunit in vitro. […] The recombinant BAD was immobilized on CM5 sensor chip. To determine the association and dissociation curves, various concentrations of NPB were injected individually onto the surface of a sensor chip coated with BAD. The overlaid sensorgrams shown in FIG. 14 were analyzed collectively.
Molecular interactions were analyzed based on surface plasmon resonance using a BIAcore-2000 system (BIAcore AB, Uppsala, Sweden). Human recombinant BAD protein (Catalog No. MBS143012, MyBiosource, USA) was immobilized on a sensor chip as described by the manufacturer protocol. To examine the interaction of BAD with NPB, various concentrations of NPB (20 to 100 μM) in the running buffer (HBS-EP, pH 7.4, BIAcore AB) were injected onto the surface of the BAD-immobilized sensor chip with a flow rate of 15 μl/min as per the manufacturer's directions. NPB was allowed to interact with BAD subunit for 2 min for association and dissociation, respectively, after which the sensor chip was regenerated by injecting 1 M NaCl for 2 min before the next injection. Using BIA evaluation software 4.1 (BIAcore AB), the kinetic parameters were such as association and dissociation rate constants (ka and kd), dissociation equilibrium constants (Kd) using a 1:1 binding model with mass transfer. Sensograms obtained were overlaid using BIA evaluation software.

Series [2] concerns normal hepatocytes (LO2) and immortalized mammary epithelial cells (MCF10A and MCF12A). Put plainly: Activity on normal immortalized cells. The format is cell-based, human. The source says:
NPB was subsequently evaluated against panel of normal immortalized mammary epithelial cells (MCF10A and MCF12A), normal hepatocytes (LO2), mammary carcinoma (BT549, MDA-MB-231, MCF7, T47D, BT474), endometrial cancer (Ishikawa, Ecc1, RL95-2, AN3), ovarian cancer (SK-OV-3, OVCAR-2, Caov-3, HEY C2, Ovca433), liver cancer (Hep3B, H2P, H2M), colon cancer (HCT116, DLD-1, Caco-2), prostate cancer (PC3, LNCaP, DU145) and pancreatic cancer (AsPC-1, BxPC-3) cells. […] Using a Laplacian-modified Naïve Bayes classifier, NPB is subjected to in silico analysis which anticipates the human target of NPB as BAD protein.
Effect of NPB (5 μM) on carcinoma cell viability including, mammary, endometrial, ovarian, liver, colon, prostate, and pancreatic carcinoma cell lines. (A) Cell viability (B) caspase 3/7 activities and (C) cytotoxicity were evaluated using ApoTox-GIo™ Triplex Assay Kit as described in methodology. Statistical significance was assessed by an unpaired two-tailed Student's t-test using GraphPad Prism5. The column represents mean of triplicate determinations; bars, ±SD. **P<0.001, *P<0.05. Note: RFU, relative fluorescence unit; RLU, relative luminescence unit, #; non-transformed, immortalized epithelial cells; MB-231, MDA-MB-231. […]

The test system of a further series is MCF7 cells. Put plainly: AlamarBlue cell viability assay. The format is cell-based. The conditions noted are these: Homo sapiens, read-out: IC50 (antiproliferative). The source says: We initially investigated the effect of newly synthesized small molecule compounds against MCF7 cells (ER+ MC cells) using an AlamarBlue® cell viability assay. Among the series of novel small molecule compounds, NPB was identified as an efficacious small molecule compound reducing viability of MCF7 cells compared to vehicle (DMSO) treated cells. […] We next determined the inhibitory concentration 50% (IC50) of NPB in wide-range of carcinoma cell lines including those derived from ER− mammary (BT549, MDA-MB-231), ER+ mammary (MCF7, T47D, and BT474), endometrial (Ishikawa, ECC-1, RL95-2, and AN3), ovarian (SK-OV-3, OVCAR-2, Caov-3, HEY C2, and OVCA433), hepatocellular (Hep3B, H2P, and H2M), colon (HCT116, DLD-1, and Caco-2), prostate (PC3, LNCaP, and DU145) and pancreatic (AsPC-1, BxPC-3) carcinoma. As normal cell controls, we also included immortalized mammary epithelial cells (MCF10A and MCF12A), and immortalized hepatocytes (LO2) in the panel of cell lines.

Structures are written as SMILES. Entries after “also recorded” stand apart in the source; their conditions may differ.

For the molecule `O=C(NC1CCCC1)c1cccc(C(c2ccccc2O)N2CCN(c3cccc(Cl)c3Cl)CC2)c1` (centres unmarked) [NPB, N-cyclopentyl-3-((4-(2,3-dichlorophenyl)piperazin-1-yl)(2-hydroxyphenyl)methyl) benzamide], in series [1] (1:1 binding model with mass transfer, read-out: dissociation equilibrium constants (Kd)), the Kd is 37.1 µM. Moreover, in series [1] (immobilized BAD, NPB 20 to 100 μM, read-out: association rate constant), the kon is 1400 M⁻¹ s⁻¹. The koff in series [1] (immobilized BAD, NPB 20 to 100 μM, read-out: dissociation rate constant) is 0.054 s⁻¹. The “activity / cytotoxic effect on normal cells” value in series [2] is on record as “no substantial activity; also recorded: did not have cytotoxic effect”. Further, the IC50 in the series with MCF7 cells stood at 6.5 µM.

(Values after patent publication US11292773B2, “Small molecule inhibitors of BCL-2-associated death promoter (BAD) phosphorylation” (NATIONAL UNIVERSITY OF SINGAPORE, priority 2017, dated 2022).)
